Source: US20120270864A1, “2-QUINOLINONE AND 2-QUINOXALINONE-DERIVATIVES AND THEIR USE AS ANTIBACTERIAL AGENTS” (ASTRAZENECA AB, priority 2006, published 2012)
In brackets after ≈: the same amount, converted by molar mass.

Experiments:
Type in all cases: cell-based
[1] = test system: Staphylococcus aureus; test: Bacterial Susceptibility Testing Methods 1 (MIC in liquid media, 96 well format); conditions: lowest drug concentration able to reduce growth by 80% or more, 37° C., 24 hours, read-out: MIC against Staphylococcus aureus
Description: Compounds may be tested for antimicrobial activity by susceptibility testing in liquid media in a 96 well format. Compounds may be dissolved in dimethylsulfoxide and tested in 10 doubling dilutions in the susceptibility assays. The organisms used in the assay may be grown overnight on suitable agar media and then suspended in a liquid medium appropriate for the growth of the organism. The suspension may be adjusted to be equal to a 0.5 McFarland and a further 1 in 10 dilution may be made into the same liquid medium to prepare the final organism suspension in 100 μL. Plates may be incubated under appropriate conditions at 37° C. for 24 hours prior to reading. The Minimum Inhibitory Concentration (MIC) was determined as the lowest drug concentration able to reduce growth by 80% or more.
Compounds were evaluated against a panel of Gram-positive species, including Staphylococcus aureus, Streptococcus pneumoniae, Streptococcus pyogenes, and Enterococcus faecium. In addition, compounds were evaluated against a panel of Gram-negative species including Haemophilus influenzae, Escherichia coli and Moraxella catarrhalis.

[2] = test system: Escherichia coli; test: as above; conditions: lowest drug concentration able to reduce growth by 80% or more, 37° C., 24 hours, read-out: MIC against Escherichia coli
[3] = test system: Staphylococcus aureus (Sau) 516 cells; test: Bacterial Susceptibility Testing Methods 2 (microbroth dilution, growth inhibition); conditions: Staphylococcus aureus; for inhibition at 8 µg/mL: Tested Concentration 8 μg/mL, Staphylococcus aureus 516 cell growth suppressed compared to untreated sample
Description: Compounds may be tested for antimicrobial activity by susceptibility testing using microbroth dilution methods recommended by CSLI. Compounds may be dissolved in dimethylsulfoxide and tested in 10 doubling dilutions in the susceptibility assays such that the final dimethylsulfoxide concentration in the assay is 2% (v/v). The Staphylococcus aureus (Sau) 516 cells used in the assay may be grown overnight on appropriate agar media and then suspended in the NCCLS-recommended liquid susceptibility-testing media. […] Plates may be incubated under appropriate conditions of atmosphere and temperature and for times according to NCCLS standard methods prior to being read. As used in Table 1 below, the term “inhibition” refers to the percentage of Staphylococcus aureus 516 cell growth that is suppressed (compared to an untreated sample) by the compound of the indicated example number. When tested in the above in-vitro assay, the compounds and salts of the example numbers listed below were tested at the indicated concentrations, providing the indicated inhibitions. In most instances, the highest concentrations at which the compounds were tested was 8 μg/mL. In some instances, however, compounds were tested at concentrations higher than 8 μg/mL, typically when the concentration was first measured in μM and was subsequently converted to μg/mL. In those cases in which compounds were tested at more than one concentration higher than 8 μg/mL, the concentration closest to 8 μg/mL is provided below.

## N#Cc1ccc2ccc(=O)n(CCN3CC[C@H](NCc4ccc5c(n4)NC(=O)CO5)[C@H](O)C3)c2c1 [Example 2, 1-[2-((3R,4S)-3-Hydroxy-4-{[(3-oxo-3,4-dihydro-2H-pyrido[3,2-b][1,4]oxazin-6-yl)methyl]amino}piperidin-1-yl)ethyl]-2-oxo-1,2-dihydro quino line-7-carbonitrile]
[1]
  MIC: 0.25 µg/mL (≈ 0.527 µM)
[2]
  MIC: 0.5 µg/mL (≈ 1.05 µM)
[3]
  inhibition at 8 µg/mL: 100%

## CO[C@@H]1CN(CCn2c(=O)cc(C)c3ccc(C#N)cc32)CC[C@@H]1NCc1ccc2c(n1)NC(=O)CO2 [Example 47, 1-[2-((3R,4S)-3-M ethoxy-4-{[(3-oxo-3,4-dihydro-2H-pyrido[3,2-b][1,4]oxazin-6-yl)methyl]amino}piperidin-1-yl)ethyl]-4-methyl-2-oxo-1,2-dihydroquinoline-7-carbonitrile]
[3]
  inhibition at 8 µg/mL: 100%

## N#Cc1ccc2ccc(=O)n(CCN3CC[C@@H](NCc4ccc5c(n4)NC(=O)CO5)[C@@H](F)C3)c2c1 [Example 50, 1-[2-((3S,4R)-3-Fluoro-4-{[(3-oxo-3,4-dihydro-2H-pyrido[3,2-b][1,4]oxazin-6-yl)methyl]amino}piperidin-1-yl)ethyl]-2-oxo-1,2-dihydro quino line-7-carbonitrile]
[3]; Tested Concentration 14 μg/mL, Staphylococcus aureus 516 cell growth
  inhibition at 14 µg/mL: 100%

## CO[C@H]1CN(CCn2c(=O)cc(C)c3ccc(C#N)cc32)CC[C@H]1NCc1ccc2c(n1)NC(=O)CO2 [Example 51, 1-[2-((3S,4R)-3-Methoxy-4-{[(3-oxo-3,4-dihydro-2H-pyrido[3,2-b][1,4]oxazin-6-yl)methyl]amino}piperidin-1-yl)ethyl]-4-methyl-2-oxo-1,2-dihydro quino line-7-carbonitrile]
[3]; Tested Concentration 9 μg/mL, Staphylococcus aureus 516 cell growth
  inhibition at 9 µg/mL: 100%

## N#Cc1ccc2ccc(=O)n(CCN3CC[C@H](NCc4ccc5c(n4)NC(=O)CO5)[C@H](F)C3)c2c1 [Example 52, 1-[2-((3R,4S)-3-fluoro-4-{[(3-oxo-3,4-dihydro-2H-pyrido[3,2-b][1,4]oxazin-6-yl)methyl]amino}piperidin-1-yl)ethyl]-2-oxo-1,2-dihydroquinoline-7-carbonitrile]
[3]; Tested Concentration 13 μg/mL, Staphylococcus aureus 516 cell growth
  inhibition at 13 µg/mL: 100%
